# Reference: patent US7718651B2, “Inhibitors of FtsZ and uses thereof” (priority 2002, dated 2010)
# Like-named read-outs stand apart in the source and are kept apart here.
# What was measured:
# [1] = tested on: M. tuberculosis H37Rv; test: MIC99 determination, BACTEC 460 radiometric system; assay type: cell-based; details: Mycobacterium tuberculosis; for MIC99: Table 3, read-out: Screen 2 MIC99
# [2] = tested on: M. tuberculosis H37Rv; test: microbe, parasite or virus in culture; assay type: cell-based; details: for inhibition of growth at 12.5 µg/mL: Mycobacterium tuberculosis, at 12.5% μg/ml (so in the source), read-out: Primary Screen PI (% inhibition of growth); for activity against M. tuberculosis H37Rv in the primary screen: in words
# [3] = M. tuberculosis H37Rv, Table 8, read-out: MIC
# [4] = M. tuberculosis H37Rv, screen concentration 12.5 g/ml [sic], Table 8
SMILES,"% Inh [2, 4]",also measured
"CCOC(=O)Nc1cc2c(c(N)n1)N=C(c1ccccc1)C(c1ccccc1)O2 (stereo not shown) [CAO-040, (5-Amino-2,3-diphenyl-2H-pyrido-[4,3b][1,4]oxazin-7-yl)-carbamic acid ethyl ester]",–,MIC99 ([1]; M. tuberculosis H37Rv): 6.25 µg/mL; inhibition of growth at 12.5 µg/mL ([2]; M. tuberculosis H37Rv): 90%; activity against M. tuberculosis H37Rv in the primary screen [2]: demonstrated activity
"CCN(CC)S(=O)(=O)c1ccc(CNc2cc(N)nc3nc(-c4ccccc4)c(-c4ccccc4)nc23)cc1 [Compound 4427-143, 4-[(6-Amino-2,3-diphenyl-pyrdo[2,3b]pyrazin-8-yl-amino)-methyl]-N,N-diethyl-benzenesulfonamide]",–,MIC99 ([1]; M. tuberculosis H37Rv): 3.13 µg/mL; inhibition of growth at 12.5 µg/mL ([2]; M. tuberculosis H37Rv): 99%; activity against M. tuberculosis H37Rv in the primary screen [2]: demonstrated activity
CCOC(=O)Nc1cc(NC(C)CCCN(CC)CC)c2ncc(-c3ccc(Cl)cc3)nc2n1.Cl (stereo not shown) [Compound A5],99%,"MIC [1, 3]: 1.56 µg/mL"
CCOC(=O)Nc1cc(NC(C)CCCN(CC)CC)c2nc(-c3ccc(Cl)cc3)c(-c3ccc(Cl)cc3)nc2n1 (stereo not shown) [Compound A6],99%,"MIC [1, 3]: 1.56 µg/mL"
CCOC(=O)Nc1cc2c(c(N)n1)N=C(c1ccc(OCc3ccccc3)cc1)[C@H](C)N2 [Compound A8],99%,"MIC [1, 3]: 6.25 µg/mL"
CCOC(=O)Nc1cc2c(c(N)n1)N=C(c1ccc(OCc3ccccc3)cc1)[C@@H](C)N2 [Compound A9],99%,"MIC [1, 3]: 6.25 µg/mL"
O=C(Nc1cc(Cl)cc(NC(=O)Oc2ccccc2)n1)Oc1ccccc1 [Compound A36],97%,MIC ([1]; H37RV): 12.5 µg/mL
CCOC(=O)Nc1cc(NC(C)CCCN(CC)CC)c2ncc(-c3ccccc3)nc2n1.Cl.Cl (stereo not shown) [Compound A37],96%,"MIC [1, 3]: 12.5 µg/mL"
CCOC(=O)Nc1cc2c(c(N)n1)N=C(c1ccccc1)C(C)(C)S2.Cl [Compound A40],95%,"MIC [1, 3]: > 6.25 µg/mL"
CCOC(=O)Nc1cc2c(c(N)n1)N=C(c1cc(OC)cc(OC)c1)[C@H](C)O2 [Compound A42],95%,"MIC [1, 3]: 12.5 µg/mL"
CCOC(=O)Nc1cc(N)c2nc(CN(C)c3ccccc3)cnc2n1 [Compound A273],0%,–
CCOC(=O)Nc1cc(N)c([N+](=O)[O-])c(NCC(O)CN(C)c2ccccc2)n1 (stereo not shown) [Compound A274],0%,–
CCOC(=O)Nc1cc(N)c2nc(O)[nH]c2n1 [Compound A275],0%,–
CCOC(=O)Nc1cc2ncc(C)nc2c(NC(=O)OCC)n1 [Compound A276],0%,–
CCOC(=O)Nc1cc2nc(C)cnc2c(NC(=O)OCC)n1 [Compound A277],0%,–
CCOC(=O)Nc1cc2[nH]cnc2c(NC(=O)OCC)n1.Cl [Compound A278],0%,–
C=CCNc1cc(NC(=O)OCC)nc(N)c1[N+](=O)[O-] [Compound A279],0%,–
CCOC(=O)Nc1cc(NC(c2ccccc2)c2ccccc2)c2nc[nH]c2n1.Cl [Compound A280],0%,–
C=CCNc1cc(NC(=O)OCC)nc(NC(=O)OCC)c1[N+](=O)[O-] [Compound A281],0%,–
CCOC(=O)Nc1cc(N)c2nc(C)cnc2n1 [Compound A282],0%,–
CCOC(=O)Nc1cc(N)c2c(n1)NCC(C)=N2 [Compound A283],0%,–
Nc1nc(NC(=O)OCc2ccccc2)cc(Cl)c1[N+](=O)[O-] [Compound A286],0%,–
CCOC(=O)Nc1cc2c(c(N)n1)N=C(CN(C)c1ccc(C(=O)OC)cc1)CN2 [Compound A288],0%,–
CCOC(=O)Nc1cc2ncc(CNc3ccc(C(=O)OCC)cc3)nc2c(N)n1 [Compound A289],0%,–
CCOC(=O)Nc1cc(NC/C(CNc2ccc(C(=O)OCC)cc2)=N/O)c([N+](=O)[O-])c(N)n1 [Compound A291],0%,–

SMILES,"% Inh [2, 4]",also measured
CCOC(=O)Nc1cc(NCC(=O)COc2ccc(C(=O)OCC)cc2)c([N+](=O)[O-])c(N)n1 [Compound A292],0%,–
CCOC(=O)N(Cc1ccccc1)c1cc(Cl)c([N+](=O)[O-])c(N)n1 [Compound A293],0%,–
CCOC(=O)N(Cc1ccc(S(N)(=O)=O)cc1)c1cc(Cl)c([N+](=O)[O-])c(N)n1 [Compound A294],0%,–
CCOC(=O)Nc1cc(NC(c2ccccc2)c2ccccc2)c([N+](=O)[O-])c(OCC(=O)c2ccc(Br)cc2)n1 [Compound A295],0%,–
CCOC(=O)Nc1cc2[nH]c(-c3cccc(C)c3)nc2c(N(CCc2ccccc2)Cc2ccccc2)n1 [Compound A297],0%,–
CCOC(=O)Nc1cc(NC(c2ccccc2)c2ccccc2)c([N+](=O)[O-])c(O)n1 [Compound A298],0%,–
CCOC(=O)Nc1cc(NC(c2ccccc2)c2ccccc2)c([N+](=O)[O-])c(Cl)n1 [Compound A299],0%,–
CCOC(=O)Nc1cc(NCC(=O)c2ccc(-c3ccccc3)cc2)c([N+](=O)[O-])c(N)n1 [Compound A300],0%,–
CCOC(=O)Nc1cc(NC(CC)C(O)c2ccccc2)c([N+](=O)[O-])c(N)n1 (stereo not shown) [Compound A301],−1%,–
CCCCC(Nc1cc(NC(=O)OCC)nc(N)c1[N+](=O)[O-])C(C)O (stereo not shown) [Compound A302],−1%,–
CCOC(=O)Nc1cc(NC(C)C(O)c2ccc(O)cc2)c([N+](=O)[O-])c(N)n1 (stereo not shown) [Compound A303],−2%,–
CCOC(=O)Nc1cc(N[C@@H](C)C(=O)c2ccc(O)cc2)c([N+](=O)[O-])c(N)n1 [Compound A304],−2%,–
CCOC(=O)Nc1cc(N[C@@H](C)C(=O)c2ccc(O)cc2)c([N+](=O)[O-])c(N)n1 [Compound A305],–,% Inh [2]: −2%
CCOC(=O)Nc1cc2c(c(N)n1)N=C(c1ccccc1)C(CC)N2 (stereo not shown) [Compound A306],−3%,–
CCOC(=O)Nc1cc(NC(CC)C(=O)c2ccccc2)c([N+](=O)[O-])c(N)n1 (stereo not shown) [Compound A307],−8%,–
CCOC(=O)Nc1cc(NCCC(=O)c2ccccc2)c([N+](=O)[O-])c(N)n1 [Compound A308],−8%,–
CCOC(=O)Nc1cc(N[C@@H](C)C(O)c2ccccc2)c([N+](=O)[O-])cn1 (stereo partly shown) [Compound A309],−10%,–
CCOC(=O)Nc1cc(N[C@H](C)[C@@H](O)c2ccccc2)c(N)c(N)n1 [Compound A310],−15%,–
CCOC(=O)Nc1cc2c(c(NC(c3ccccc3)c3ccccc3)n1)N=C(c1ccccc1)C1NC=CN21 (stereo not shown) [Compound A311],−16%,–
CCOC(=O)Nc1cc(NC(C)[C@H](O)c2ccccc2)c(N)c(N)n1 (stereo partly shown) [Compound A312],−19%,–
CCOC(=O)Nc1cc(NC(C)C(=O)Cc2ccccc2)c([N+](=O)[O-])c(N)n1 (stereo not shown) [Compound A313],−21%,–
CCOC(=O)Nc1cc(NC(C)C(=O)c2ccccc2)c([N+](=O)[O-])cn1 (stereo not shown) [Compound A314],−36%,–
"CCOC(=O)Nc1cc2c(c(N)n1)N=C(CN(C)c1ccc(OC)cc1)CN2 [SRI-5713, (5-Amino-3-{[(4-methoxy-phenyl)-methyl-amino]-methyl}-1,2-dihydro-pyrido[3,4-b]pyrazin-7-yl)-carbamic acid ethyl ester]",–,inhibition of growth at 12.5 µg/mL ([2]; M. tuberculosis H37Rv): 20%
"CCCCNC(=O)Oc1ccc(C2=Nc3c(cc(NC(=O)OCC)nc3N)N[C@H]2C)cc1 [SRI-20158, [5-Amino-3-(4-butylcarbamoyloxy-phenyl)-2-methyl-1,2-dihydro-pyrido[3,4-b]pyrazin-7-yl]-carbamic acid ethyl ester]",–,inhibition of growth at 12.5 µg/mL ([2]; M. tuberculosis H37Rv): 10%
